The assay concerns T. harzianum strain T-22. The assay can be described thus: Effect of chemical seed treatments on subsequent root colonization by T-22. The note with it: full rates of chemical seed treatment. The assay is classed as in vivo, Trichoderma harzianum. From the text: In nearly all cases, the best results in direct-seeded field crops are obtained with an integration of chemical seed treatments and the deep root developing agents. […] This resistance permits the use of both the biological root colonizing agent and chemical seed protectants.

With `CC(C)(C)C(O)(CCc1ccc(Cl)cc1)Cn1cncn1` (centres unmarked) [tebuconazole], the “prevention of subsequent root colonization by T-22” value was “exceptions”.

Take `CN(C)C(=S)SSC(=S)N(C)C` [thiram]: the “prevention of subsequent root colonization by T-22” value is on record as “exceptions”.
